Measurements: patent US20260174859A1, “ISOINDOLINONE DERIVATIVE HAVING ARYLCYCLOALKYLAMIDE STRUCTURE, AND USE THEREOF” (ONCORD BIO INC, priority 2022, published 2026)

Key:
[1] = tested on: NCI-H1155 (lung cancer cells); assay: CytoX cell viability assay in NCI-H1155 lung cancer cells; settings: Homo sapiens, NCI-H1155, 72 h; for viability at 0.01 µM: read-out: NCI-H1155 (% viability) at 10 nM; for viability at 0.5 µM: read-out: NCI-H1155 (% viability) at 500 nM
Protocol: (§1) The viability of NCI-H1155 (lung cancer cells) was measured using the CytoX cell viability assay kit (LPS Solution, #CYT3000). […] CytoX solution was then added to the cells and incubated for 1 hour.

[2] = tested on: NCI-H1155 (lung cancer cells)
Protocol: as §1

KG-1 cells = assay: Cytotoxicity assay (WST-1) in KG-1 cancer cells; assay type: cell-based; settings: Homo sapiens, 72 hours
Protocol: To evaluate the effects of the compounds of the present disclosure on cancer cells, a cytotoxicity assay was conducted as follows.
Cancer cells (KG-1) were seeded at a density of 10,000 cells per well in 96-well plates. The compound of the present disclosure and control compounds (Comparative Compounds 1, 2, and 3) were treated at predetermined concentrations. After 72 hours, the cells were treated with WST-1 reagent for 1 hour. Then, absorbance was read at 450 nm using a SpectraMax spectrophotometer to determine cell viability.

Row | Compound | viability at 0.01 µM [1] [%] | viability at 0.5 µM [1] [%] | NCI-H1155 (% viability) at 10 nM ([2]; 0.01 µM) [%] | NCI-H1155 (% viability) at 500 nM ([2]; 0.5 µM) [%] | IC50 (KG-1 cells) [µM]
1 | O=C1CCC(N2Cc3cc(CNC(=O)[C@@H]4C[C@H]4c4ccc(Cl)cc4)ccc3C2=O)C(=O)N1 (mixture of isomers) [Cpd. 5, (1R,2R)-2-(4-chlorophenyl)-N-((2-(2,6-dioxopiperidin-3-yl)-1-oxoisoindolin-5-yl)methyl)cyclopropane-1-carboxamide racemic mixture] | 2 | 4 | – | – | –
2 | O=C1CCC(N2Cc3cc(CNC(=O)C(F)(F)c4ccc(Cl)cc4)ccc3C2=O)C(=O)N1 (stereo not drawn) [CC-90009 (Eragidomide), Eragidomide] | – | – | 85.0 | 23.25 | –
3 | O=C1CCC(N2Cc3cc(CNC(=O)c4cc5ccccc5cn4)ccc3C2=O)C(=O)N1 (stereo not drawn) [Comparative Cpd. 1, N-((2-(2,6-dioxopiperidin-3-yl)-1-oxoisoindolin-5-yl)methyl) isoquinoline-3-carboxamide] | – | – | – | – | > 10
4 | O=C1CCC(N2Cc3cc(CNC(=O)c4cnc5ccccc5n4)ccc3C2=O)C(=O)N1 (stereo not drawn) [Comparative Cpd. 2, N-((2-(2,6-dioxopiperidin-3-yl)-1-oxoisoindolin-5-yl)methyl)quinoxaline-2-carboxamide] | – | – | – | – | > 10
5 | O=C1CCC(N2Cc3cc(CNC(=O)c4ccc5cc(Cl)ccc5n4)ccc3C2=O)C(=O)N1 (stereo not drawn) [Comparative Cpd. 3, 6-chloro-N-((2-(2,6-dioxopiperidin-3-yl)-1-oxoisoindolin-5-yl)methyl) quinoline-2-carboxamide] | – | – | – | – | 4.1
6 | O=C1CCC(N2Cc3cc(CNC(=O)[C@@H]4C[C@H]4c4ccccc4)ccc3C2=O)C(=O)N1 (stereo partly drawn) [Cpd. 1, (1R,2R)—N-((2-(2,6-dioxopiperidin-3-yl)-1-oxoisoindolin-5-yl)methyl)-2-phenylcyclopropane-1-carboxamide] | – | – | – | – | 0.002
7 | O=C1CCC(N2Cc3cc(CNC(=O)[C@@H]4C[C@H]4c4ccc(Cl)cc4)ccc3C2=O)C(=O)N1 (stereo partly drawn) [Cpd. 3, (1R,2R)-2-(4-chlorophenyl)-N-((2-(2,6-dioxopiperidin-3-yl)-1-oxoisoindolin-5-yl)methyl)cyclopropane-1-carboxamide] | 4 | 4 | – | – | –
8 | O=C1CCC(N2Cc3cc(CNC(=O)[C@@H]4C[C@@H]4c4ccccc4)ccc3C2=O)C(=O)N1 (stereo partly drawn) [Cpd. 4, (1R,2S)—N-((2-(2,6-dioxopiperidin-3-yl)-1-oxoisoindolin-5-yl)methyl)-2-phenylcyclopropane-1-carboxamide] | 94 | 95 | – | – | –
9 | O=C1CCC(N2Cc3cc(CNC(=O)[C@@H]4C[C@H]4c4cccc(Cl)c4)ccc3C2=O)C(=O)N1 (stereo partly drawn) [Cpd. 6, (1R,2R)-2-(3-chlorophenyl)-N-((2-(2,6-dioxopiperidin-3-yl)-1-oxoisoindolin-5-yl)methyl)cyclopropane-1-carboxamide] | 5 | 4 | – | – | –
10 | O=C1CCC(N2Cc3cc(CNC(=O)[C@H]4C[C@@H]4c4ccccc4)ccc3C2=O)C(=O)N1 (stereo partly drawn) [Cpd. 7, (1S,2S)—N-((2-(2,6-dioxopiperidin-3-yl)-1-oxoisoindolin-5-yl)methyl)-2-phenylcyclopropane-1-carboxamide] | 3 | 4 | – | – | –
11 | O=C1CCC(N2Cc3cc(CNC(=O)[C@@H]4C[C@H]4c4ccc(F)cc4)ccc3C2=O)C(=O)N1 (stereo partly drawn) [Cpd. 8, (1R,2R)—N-((2-(2,6-dioxopiperidin-3-yl)-1-oxoisoindolin-5-yl)methyl)-2-(4-fluorophenyl)cyclopropane-1-carboxamide] | 48 | 26 | – | – | –
12 | O=C1CCC(N2Cc3cc(CNC(=O)[C@@H]4C[C@H]4c4cccc(F)c4)ccc3C2=O)C(=O)N1 (stereo partly drawn) [Cpd. 9, (1R,2R)—N-((2-(2,6-dioxopiperidin-3-yl)-1-oxoisoindolin-5-yl)methyl)-2-(3-fluorophenyl)cyclopropane-1-carboxamide] | 52 | 25 | – | – | –
13 | O=C1CCC(N2Cc3cc(CNC(=O)[C@H]4C[C@@H]4c4cccc(Cl)c4)ccc3C2=O)C(=O)N1 (stereo partly drawn) [Cpd. 10, (1S,2S)-2-(3-chlorophenyl)-N-((2-(2,6-dioxopiperidin-3-yl)-1-oxoisoindolin-5-yl)methyl)cyclopropane-1-carboxamide] | 39 | 25 | – | – | –
14 | O=C1CCC(N2Cc3cc(CNC(=O)C4CC4c4ccc(C(F)(F)F)cc4)ccc3C2=O)C(=O)N1 (stereo not drawn) [Cpd. 11, N-((2-(2,6-dioxopiperidin-3-yl)-1-oxoisoindolin-5-yl)methyl)-2-(4-(trifluoromethyl)phenyl)cyclopropane-1-carboxamide] | 79 | 34 | – | – | –
15 | Cc1ccc([C@H]2C[C@@H]2C(=O)NCc2ccc3c(c2)CN(C2CCC(=O)NC2=O)C3=O)cc1 (stereo partly drawn) [Cpd. 12, (1S,2S)—N-((2-(2,6-dioxopiperidin-3-yl)-1-oxoisoindolin-5-yl)methyl)-2-(p-tolyl)cyclopropane-1-carboxamide] | 44 | 27 | – | – | –
16 | O=C1CCC(N2Cc3cc(CNC(=O)C4CC4c4ccc(Cl)cc4Cl)ccc3C2=O)C(=O)N1 (stereo not drawn) [Cpd. 13, 2-(2,4-dichlorophenyl)-N-((2-(2,6-dioxopiperidin-3-yl)-1-oxoisoindolin-5-yl)methyl)cyclopropane-1-carboxamide] | 27 | 24 | – | – | –
17 | O=C1CCC(N2Cc3cc(CNC(=O)C4CCC4c4ccccc4)ccc3C2=O)C(=O)N1 (stereo not drawn) [Cpd. 14, N-((2-(2,6-dioxopiperidin-3-yl)-1-oxoisoindolin-5-yl)methyl)-2-phenylcyclobutane-1-carboxamide] | 96 | 57 | – | – | –
